In patent publication US20220073496A1, “NOVEL QUINOLINE DERIVATIVE INHIBITOR” (Nanjing Transthera Biosciences Co., Ltd., priority 2018, published 2022):

Assays:
[1] = Stability in liver microsome of mice; type: in vitro ADME; conditions: liver microsomes; Mouse liver microsome 0.5 mg protein/mL, compound 1 μM, 37° C.
Description: (§1) Assay 1: Stability assessment of the compounds of the present invention in liver microsome of mice and dogs
(§2) Test substances: the compounds of the present invention, wherein the structures and preparations thereof were as described above.
(§3) The composition of the incubation system:
(§4) Preparation of Test Substances:
(§5) An appropriate amount of the compound was accurately weighed and dissolved in DMSO to prepare a 5.0 mM stock solution. The 5.0 mM stock solution was diluted to 1.0 mM with DMSO, and finally diluted with water to a 10 μM test substance working solution for use (the DMSO content in the reaction system was 0.1%).
(§6) (1) The liver microsome (20 mg protein/mL) was taken out from the −80° C. refrigerator, pre-incubated at 37° C. with a water-bathing constant temperature vibrator for 3 minutes, and melted for use.
(§7) (2) A mixed solution of the incubation system (excluding compounds and β-NADPH) according to the above “composition of the incubation system” for the assay was prepared, and pre-incubated at 37° C. with a water-bathing constant temperature vibrator for 2 minutes.
(§8) (3) Control group (excluding β-NADPH): 30 μL of water and 30 μL of compound working solution (10 μM) were added to 240 μL of the mixed solution of the incubation system of step (2), and vortexed for 30 seconds to mix well. The total reaction volume was 300 μL. A duplicate sample was prepared. The sample was incubated at 37° C. with a water-bathing constant temperature vibrator. The timekeeping began and the sampling time points were set at 0 minute and 60 minutes.
(§9) (4) Sample group: 70 μL of β-NADPH solution (10 mM) and 70 μL of compound working solution (10 μM) were added to 560 μL of the mixed solution of step (2). The total reaction volume was 700 μL. The resulting mixture was vortexed for 30 seconds to mix well. A duplicate sample was prepared. The sample was incubated at 37° C. with a water-bathing constant temperature vibrator. The timekeeping began and the sampling time points were set at 0 minute, 5 minutes, 10 minutes, 20 minutes, 30 minutes, and 60 minutes after timekeeping.
(§10) (5) After vortexing for 3 minutes, the sample was centrifuged at 4000 rpm for 10 minutes.
(§11) (6) 50 μL of the supernatant was taken and 150 μL of water was added. The resulting mixture was vortexed to mix well, and analyzed by LC/MS/MS.
(§12) The half-life (t1/2) and clearance rate (Cl) were calculated using the following first-order kinetic formula:
(§13) Vd=1/protein content in liver microsome
(§14) Note: k was the slope of the logarithm of the remaining amount of the compound versus time, and Vd was the apparent distribution volume.

H1299 cell pAxl = molecular target: T1, H1299 cell pAxl (Homo sapiens, UniProt P30530); assay: Inhibitory activity on the cell pAxl (Western Blot); type: cell-based; conditions: H1299 cells, compound 1.1, 3.3, 10, 30 nM, hGAS6 200 ng/mL
T1 construct: endogenous in cells; host or cells: H1299
T1 sequence (P30530 26-894): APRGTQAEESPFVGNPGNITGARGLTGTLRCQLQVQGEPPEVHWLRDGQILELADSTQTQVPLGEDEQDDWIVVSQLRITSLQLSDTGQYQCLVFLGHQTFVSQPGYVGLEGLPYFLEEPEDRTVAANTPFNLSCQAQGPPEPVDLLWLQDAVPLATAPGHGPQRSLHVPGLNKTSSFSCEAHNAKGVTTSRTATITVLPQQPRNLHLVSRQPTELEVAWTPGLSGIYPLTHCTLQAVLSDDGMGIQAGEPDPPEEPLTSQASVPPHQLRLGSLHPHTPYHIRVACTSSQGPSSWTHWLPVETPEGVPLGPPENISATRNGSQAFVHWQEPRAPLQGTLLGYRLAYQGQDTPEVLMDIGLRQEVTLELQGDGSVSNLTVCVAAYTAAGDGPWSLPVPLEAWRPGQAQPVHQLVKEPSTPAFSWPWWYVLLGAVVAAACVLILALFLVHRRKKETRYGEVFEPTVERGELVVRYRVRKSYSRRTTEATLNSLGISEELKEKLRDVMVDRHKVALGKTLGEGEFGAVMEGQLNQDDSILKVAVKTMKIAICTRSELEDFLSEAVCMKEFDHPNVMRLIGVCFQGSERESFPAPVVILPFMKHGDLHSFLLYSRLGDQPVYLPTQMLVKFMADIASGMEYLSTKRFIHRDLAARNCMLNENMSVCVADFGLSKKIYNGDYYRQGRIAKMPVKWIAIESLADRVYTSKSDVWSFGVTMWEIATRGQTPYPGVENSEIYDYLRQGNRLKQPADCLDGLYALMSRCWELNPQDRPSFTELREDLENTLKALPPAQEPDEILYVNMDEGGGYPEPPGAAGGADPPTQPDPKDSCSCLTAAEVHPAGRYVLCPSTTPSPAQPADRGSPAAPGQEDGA
Description: Assay 5: Test for Inhibitory Activities of the Compounds of the Present Invention on the Cell pAxl
H1299 is a non-small cell lung cancer cell.
Test substances: the compounds of the present invention, wherein the structures thereof were as described above.
Test equipment: protein electrophoresis apparatus (manufactured by Bio Rad), transfer unit (manufactured by Bio Rad), exposure unit (manufactured by Tanon), CO2, cell incubator (manufactured by Thermo).
The H1299 cells were inoculated in a 6-well plate (containing 10% FBS 1640 medium, 5×10^5 cells per well), and adherent cells were cultivated at 37° C. in a 5% CO2 condition for 18 hours. The cells were starved overnight. Different concentrations of compounds were added. The final compound concentrations were 1.1, 3.3, 10, and 30 nM, and the final DMSO content was 1‰. The negative control wells contained the medium containing 1‰ DMSO. After incubating at 37° C. in a 5% CO2 condition for 60 minutes, hGAS6 (R&D, final concentration 200 ng/mL) was added to each well. After further incubating for 60 minutes, the cell total protein was extracted for Western Blot and the […] values were calculated using GraphPad 5.0 software. The inhibitory activity of the compound on the cell pAxl was examined.

[2] = Stability in liver microsome of dogs; type: in vitro ADME; conditions: liver microsomes; Dog liver microsome 0.5 mg protein/mL, compound 1 μM, 37° C.
Description: as §1, §2, §3, §4, §5, §6, §7, §8, §9, §10, §11, §12, §13, §14

COc1cc2nccc(Oc3ncc(NC(=O)c4cn(C5CC5)nc(-c5ccc(F)cc5)c4=O)cn3)c2cc1OC [Compound 44, 2-cyclopropyl-N-(2-((6,7-dimethoxyquinolin-4-yl)oxy)pyrimidine-5-yl)-6-para-fluorophenyl-5-oxo-2,5-dihydropyridazine-4-carboxamide] gave a half-life at 1 μM [1] of 2.13 h, a microsomal CLint at 1 μM [1] of 10.8 µL/min/mg and an IC50 (H1299 cell pAxl) of 3.3 to 10 nM. It also gave a half-life at 1 μM [2] of 3.73 h and a microsomal CLint at 1 μM [2] of 6.2 µL/min/mg.
